In US20240108610A1, “RECTAL ADMINISTRATION OF ROFLUMILAST FOR THE TREATMENT OF CROHN'S DISEASE” (King Abdulaziz University, priority 2022, published 2024):
Marks after values point to notes of the source that are not given here.

Assays:
MPO = test: Colonic MPO in colonic tissue homogenates, TNBS-induced colitis; type: in vivo, rat; conditions: means±SE, n = 8
Protocol: Chronic colitis was induced by weekly rectal injections of increasing doses of TNBS over 6 weeks (15, 30, 45, 60, 60, and 60 mg from day 0 to day 35), as previously described (4,12). Briefly, after food deprivation for 24 h, rats were anesthetized with an intraperitoneal injection of 1% isoflurane. TNBS was dissolved in ethanol (50%) and instilled into the colon using a cannula (0.25 mL), and then the rats were held upside down for 3 min to prevent escape of the intracolonic TNBS. Roflumilast was dissolved in dimethyl sulfoxide and diluted in 0.5% carboxymethyl cellulose sodium to a final concentration of 5.0 mg·kg^−1·day^−1 as previously described (13). Five groups of rats (n=8) were established: normal control (NC group), TNBS-treated (TNBS group, positive control), and three TNBS-treated groups that received oral sulfasalazine (SS group, 500 mg/kg) (14), oral roflumilast (by gastric gavage, OR group, 5 mg/kg), or rectal roflumilast (RR group, 5 mg/kg). Treatments were administered once daily in a volume of 200 μL for 15 days starting 48 h after the induction of colitis (from day 37) (15), and the control rats received equal amounts of vehicle. At the end of the treatment period, the rats were evaluated with the colitis activity score. […] At the end of the 15-day treatment period, the rats were sacrificed by cervical dislocation, and the colon was isolated, cleaned of feces, and measured for weight and length. Colonic myeloperoxidase (MPO) activity and glutathione (GSH) and malonaldehyde (MDA) levels were measured. […] The levels of MPO (a marker of neutrophil activity), GSH (one of the most important cellular antioxidants), and MDA (an indicator of lipid peroxidation) in colonic tissue homogenates were measured using the commercially available kits as previously described: MPO ELISA kit (Innovative Research) (18), GSH colorimetric assay kit (Innovative Research) (19), and MDA ELISA kit (Neobio Lab Comp., USA) (20).

TNF-α = TNF-α immunostaining of colonic sections; type: in vivo, rat
Protocol: Chronic colitis was induced by weekly rectal injections of increasing doses of TNBS over 6 weeks (15, 30, 45, 60, 60, and 60 mg from day 0 to day 35), as previously described (4,12). Briefly, after food deprivation for 24 h, rats were anesthetized with an intraperitoneal injection of 1% isoflurane. TNBS was dissolved in ethanol (50%) and instilled into the colon using a cannula (0.25 mL), and then the rats were held upside down for 3 min to prevent escape of the intracolonic TNBS. Roflumilast was dissolved in dimethyl sulfoxide and diluted in 0.5% carboxymethyl cellulose sodium to a final concentration of 5.0 mg·kg^−1·day^−1 as previously described (13). Five groups of rats (n=8) were established: normal control (NC group), TNBS-treated (TNBS group, positive control), and three TNBS-treated groups that received oral sulfasalazine (SS group, 500 mg/kg) (14), oral roflumilast (by gastric gavage, OR group, 5 mg/kg), or rectal roflumilast (RR group, 5 mg/kg). Treatments were administered once daily in a volume of 200 μL for 15 days starting 48 h after the induction of colitis (from day 37) (15), and the control rats received equal amounts of vehicle. At the end of the treatment period, the rats were evaluated with the colitis activity score. To detect the effects of the treatments on systemic inflammatory processes, blood was collected for measurements of the proinflammatory mediators TNF-α, IL-2, and IL-6. At the end of the 15-day treatment period, the rats were sacrificed by cervical dislocation, and the colon was isolated, cleaned of feces, and measured for weight and length. Colonic myeloperoxidase (MPO) activity and glutathione (GSH) and malonaldehyde (MDA) levels were measured. The colon was examined macroscopically for gross changes and microscopically in sections stained with hematoxylin and eosin (H&E), Masson trichrome, and Periodic Acid Schiff (PAS) stains as well as KI-67 and TNF-α immunostaining. […] This primary antibody was detected using avidin-biotin peroxidase detection solution (Dako), and the signal was visualized using diaminobenzidine. […]

[1] = oral, once daily for 15 days, SS 500 mg/kg, OR 5 mg/kg
[2] = rectal, 5 mg/kg once daily for 15 days
[3] = oral, once daily for 15 days, sulfasalazine 500 mg/kg, roflumilast 5 mg/kg

Row | Structure (SMILES) | colonic MPO activity (MPO; [1]) | colonic MPO activity (MPO; [2]) | TNF-α immunoexpression in the mucosa (TNF-α; [3]) | TNF-α immunoexpression in the mucosa (TNF-α; [2])
1 | O=C(Nc1c(Cl)cncc1Cl)c1ccc(OC(F)F)c(OCC2CC2)c1 [roflumilast] | 23.89 ± 0.92^a, b, c μ/g | 28.17 ± 1.00^a μ/g | moderately positive reactions | strong positive reactions
2 | O=C(O)c1cc(/N=N/c2ccc(S(=O)(=O)Nc3ccccn3)cc2)ccc1O [sulfasalazine] | 18.38 ± 0.87^a μ/g | – | very faint positive reactions | –
